Earlier results, collected in article PMC11913096, “MBX 2109, A Once-Weekly Parathyroid Hormone Replacement Therapy Prodrug: Phase 1, First-In-Human, Randomized Trial” (The Journal of Clinical Endocrinology and Metabolism, 2024).
Where no end group is shown, it is not given here.

Experiments:
[1] = test system: patients with hypoPT; details: once-daily, placebo 5%
Experimental: (§1) Because PTH deficiency is the etiology for chronic hypoPT, hormone replacement therapy with PTH would be the ideal treatment ([1], [2]). However, the short half-lives (t1/2) of unmodified PTH(1-34) and PTH(1-84) peptides necessitate frequent administration to normalize serum calcium levels ([2]). For example, twice-daily subcutaneous (SC) injection of teriparatide, a recombinant PTH(1-34) analogue with a short half-life (∼1 hour) ([2]), was more efficacious than once-daily administration in normalizing serum calcium and reducing hypercalciuria in patients with hypoPT ([9]). Continuous SC (pump ...

[2] = Experimental: as §1

Row | Substance | Patients achieving composite primary end point (normalizing serum calcium and eliminating active vitamin D and calcium supplements) [1] [%] | Half-life [2] [h]
1 | palopegteriparatide (SVSEIQLMHNLGKHLNSMERVEWLRKKLQDVHNF; also: methoxy-PEG carrier prodrug, attachment not given here; UniProt P01270 32-65, looked up, fragment) [prodrug of PTH(1-34) conjugated to a methoxypolyethylene glycol (PEG) carrier] | 79 | 
2 | teriparatide |  | ~1
